Earlier results on one compound are cited in US20210290432A1, “KIT FOR PRODUCING KERATOCONJUNCTIVAL COVER SHEET AND METHOD FOR PRODUCING KERATOCONJUNCTIVAL COVER SHEET” (OSAKA UNIVERSITY, priority 2016, published 2021).

For the compound `O=C(NC(Cc1cc(=O)[nH]c2ccccc12)C(=O)O)c1ccc(Cl)cc1` (stereo not shown) [Rebamipide, rebamipide], the solubility in water entry was “poorly soluble in water”.
